According to patent US10508069B2, “Acid/salt separation” (PURAC BIOCHEM B.V., priority 2011, dated 2019):
Where two headings read alike, the source gives them in different places.

Columns and labels:
[1] = Dicarboxylic acid remaining in solution while the HCl-acidified magnesium dicarboxylate solution is cooled (precipitation); type: physicochemical
Protocol: Magnesium hydroxide was added to a solution of dicarboxylic acid in water and heated up to complete dissolution. Four different carboxylic acids were used: adipic acid, fumaric acid, itaconic acid and 2,5-furandicarboxylic acid. The resulting dicarboxylate solution was meant to resemble a magnesium dicarboxylate solution obtained in a fermentation process. Although a magnesium dicarboxylate solution obtained in a fermentation process generally comprises compounds other than magnesium dicarbooxylate, such as a relatively large amount of impurities, the magnesium dicarboxylate solution prepared for this example was considered to sufficiently resemble a magnesium dicarboxylate solution obtained in a fermentation process to show the proof of principle that the invention works.
A certain amount of an aqueous solution of HCl was added to the magnesium dicarboxylate solution from Example 1, as indicated in Table 2. […] During cooling, samples were taken of the solution for each 10±1 centigrade.
The amount of crystal produced was calculated as difference between the initial dicarboxylic mass and the remaining dicarboxylic mass in solution.

[2] = water at 20° C.; cited from earlier work
[3] = Protocol: The solution was then cooled from 115° C. to 20° C. […] The precipitate was separated from the solution by filtration using a standard gravity filter.
[4] = remark: listed apart in the source
Protocol: An amount of 333 g aqueous solution of HCl (37 wt. % wt %) was added to the thus prepared magnesium succinate solution. […] During cooling, samples were taken of the solution and the precipitate of the mixture at 62, 52, 40, 31 and 20° C. The composition of the samples and the total amount of precipitate formed were determined.
The samples were taken only from the solution (for sampling, stirrer was stopped some few seconds, and after crystal settling, a sample was taken from the supernatant).

[5] = 20 ° C., MgCl2 solution, over precipitate
[6] = 30 ° C., MgCl2 solution, over precipitate
[7] = 50 ° C., MgCl2 solution, over precipitate
[8] = 60 ° C., MgCl2 solution after HCl acidulation, no precipitate yet
[9] = 40 ° C., MgCl2 solution, over precipitate

Structure (SMILES): O=C(O)/C=C/C(=O)O [Fumaric Acid, fumaric acid]
- Fumaric Acid concentration in the solution [1, 5]: 0.5 wt %
- Fumaric Acid concentration in the solution [1, 6]: 0.5 wt %
- Fumaric Acid concentration in the solution ([1]; 39 ° C., MgCl2 solution, over precipitate): 0.7 wt %
- Fumaric Acid concentration in the solution [1, 7]: 1.1 wt %
- Fumaric Acid concentration in the solution [1, 8]: 1.6 wt %

Structure (SMILES): O=C(O)CCCCC(=O)O [Adipic Acid, adipic acid]
- Adipic Acid concentration in the solution [1, 5]: 0.7 wt %
- Adipic Acid concentration in the solution [1, 6]: 1.2 wt %
- Adipic Acid concentration in the solution [1, 9]: 2 wt %
- Adipic Acid concentration in the solution ([1]; 51 ° C., MgCl2 solution, over precipitate): 3.5 wt %
- Adipic Acid concentration in the solution ([1]; 60 ° C., MgCl2 solution, over precipitate): 6.1 wt %
- Adipic Acid concentration in the solution ([1]; 70 ° C., MgCl2 solution, over precipitate): 11.5 wt %
- Adipic Acid concentration in the solution ([1]; 81 ° C., MgCl2 solution after HCl acidulation, no precipitate yet): 14.2 wt %

Structure (SMILES): O=C(O)c1ccc(C(=O)O)o1 [2,5-Furandicarboxylic Acid, 2,5-furandicarboxylic acid]
- 2,5-Furandicarboxylic Acid concentration in the solution ([1]; 22 ° C., MgCl2 solution, over precipitate): 0.06%
- 2,5-Furandicarboxylic Acid concentration in the solution ([1]; 32 ° C., MgCl2 solution, over precipitate): 0.14%
- 2,5-Furandicarboxylic Acid concentration in the solution ([1]; 42 ° C., MgCl2 solution, over precipitate): 0.33%
- 2,5-Furandicarboxylic Acid concentration in the solution ([1]; 53 ° C., MgCl2 solution, over precipitate): 0.25%
- 2,5-Furandicarboxylic Acid concentration in the solution ([1]; 62 ° C., MgCl2 solution, over precipitate): 0.38%
- 2,5-Furandicarboxylic Acid concentration in the solution ([1]; 72 ° C., MgCl2 solution, over precipitate): 0.19%
- 2,5-Furandicarboxylic Acid concentration in the solution ([1]; 84 ° C., MgCl2 solution, over precipitate): 0.52%

Structure (SMILES): [Cl-].[Cl-].[Mg+2] [MgCl2, magnesium chloride]
- saturation point in water [2]: 55 g/100 g water

Structure (SMILES): O=C(O)CCC(=O)O [Succinic Acid, succinic acid]
- succinic acid present in the filtrate ([3]; HPLC, filtrate after cooling from 115° C. to 20° C., 31.7 wt. % magnesium chloride): 0.22 wt. %
- Content succínic, Solution ([3]; solution after cooling to 20° C. and filtration, concentrated to 31.7 wt. % magnesium chloride): 0.22%
- Succinic Acid concentration in the solution [4, 5]: 2.10 wt. %
- Succinic Acid concentration in the solution ([4]; 31 ° C., MgCl2 solution, over precipitate): 3.40 wt. %
- Succinic Acid concentration in the solution [4, 9]: 5.00 wt. %
- Succinic Acid concentration in the solution ([4]; 52 ° C., MgCl2 solution, over precipitate): 8.20 wt. %
- Succinic Acid concentration in the solution ([4]; 62 ° C., MgCl2 solution after HCl acidulation, no precipitate yet): 13.13 wt. %

Structure (SMILES): C=C(CC(=O)O)C(=O)O [Itaconic Acid, itaconic acid]
- Itaconic Acid concentration in the solution [1, 5]: 2.6 wt %
- Itaconic Acid concentration in the solution [1, 6]: 4.1 wt %
- Itaconic Acid concentration in the solution ([1]; 41 ° C., MgCl2 solution, over precipitate): 6.0 wt %
- Itaconic Acid concentration in the solution [1, 7]: 9.4 wt %
- Itaconic Acid concentration in the solution [1, 8]: 13.2 wt %
